The results in this text go back to patent US9187415B2, “Sulfonamides as HIV protease inhibitors” (Merck Canada Inc., priority 2010, dated 2015).

What is called IC50 is the concentration that inhibits the measured activity by half. One may read the IC95 as the concentration needed for an effect of 95%.

The target of experiment [1] is T1, HIV-1 protease (wild type) (Human immunodeficiency virus type 1 group M subtype B, UniProt P04585).
T1 construct: made in house; host or cells: Escherichia coli
As to the kind of experiment: Protease Inhibition Assay (Pepcleave), inhibition of microbial expressed HIV protease. Format: biochemical. As to the method:
Assay for Inhibition of Microbial Expressed HIV Protease
Inhibition studies of the reaction of the protease (which was expressed in Eschericia coli) with a peptide substrate [Val-Ser-Gln-Asn-(betanaphtyl)Ala-Pro-Ile-Val]. The inhibitor is first preincubated with the HIV-1 protease (wild type) enzyme in assay buffer (50 mM sodium acetate, pH 5.5, 100 mM NaCl, and 0.1% BSA) for 30 minutes at room temperature. Substrate is added to 400 micromolar in a total volume of 80 microliters containing 10 picomolar HIV-1 protease and the reaction is incubated for 1 hour at 30° C. The reaction is quenched with the addition of 120 microliters of 10% phosphoric acid. The product formation is determined after separation of product and substrate on a Zorbax Eclipse XDB-C18 column connected to an Agilent 1100 high performance liquid chromatography system with fluorescence detection (excitation 270 nanometer and emission 330 nanometer). Alternatively, the inhibitor is preincubated with enzyme and substrate as described above, but in a total volume of 20 microliters containing 20 picomolar HIV-1 protease and the reaction is incubated for 1 hour at 30° C. The reaction is quenched with the addition of 30 microliters of 1 micromolar indinavir (indinavir is also used as an internal standard), and the product formation is determined after separation of product and substrate on a Zorbax Eclipse XDB-C18 column connected to an API 4000 mass spectrometer (Applied Biosystems) with multiple reaction monitoring (transitions were 644.5/428.9 and 615.4/422.2 (M1/M3) for product and indinavir respectively). The extent of inhibition of the reaction is determined from the peak area of the products. HPLC of the products, independently synthesized, provided quantitation standards and confirmation of the product composition.
Protease Inhibition Assay (“Pepcleave”) data were collected based on the wild-type HIV-1 protease enzyme. The assay monitors the cleavage of a 8-mer peptide (VSQN[β-Nal]PIV) where the tyrosine at P1 position is replaced by β-Naphthyl-alanine. Upon cleavage of the peptide by HIV-1 protease, the product is separated from substrate by HPLC column and detected at Ex.=270 nm/Em=330 nm.

Experiment [2] concerns human immunodeficiency virus type 1. As to the kind of experiment: Acute Infection Assay (Spread). Format: cell-based, HIV-1. The text has this:
Acute Infection Assay (“Spread”) data were generated in 10% FBS, and according to the methods disclosed by J. P. Vacca et al, “L-735,524: An orally bioavailable human immunodeficiency virus type 1 protease inhibitor,” Proc. Nati. Acad. Sci. USA, Vol. 91, pp. 4096-4100 (April 1994).

[3] abbreviates: Human immunodeficiency virus 1, 10% FBS, mean of at least two independent experiments, read-out: Spread IC95.
Where [4] appears, read: wild-type HIV-1 protease, mean of at least two independent experiments, read-out: Pepcleave Enzyme inhibition IC50.

Like-named read-outs stand apart in the source and are kept apart here.

`COC(=O)N[C@H](C(=O)Nc1ccccc1CC[C@@H](CO)N(Cc1cn[nH]c1)S(=O)(=O)c1ccc(N)cc1)C(c1ccccc1)c1ccccc1` [Example 6, N-{2-[(3S)-3-{[(4-aminophenyl)sulfonyl](1H-pyrazol-4-ylmethyl)amino}-4-hydroxybutyl]phenyl}-Nα-(methoxycarbonyl)-β-phenyl-L-phenylalaninamide]: 0.07 nM corresponded to half-maximal inhibition in experiment [1] (IC50). Also, the IC95 in experiment [2] (setting [3]) turned out to be 2.34 µM.
As for `COC(=O)N[C@@H](Cc1ccccc1Cl)C(=O)Nc1ccccc1CC[C@@H](CO)N(Cc1cn[nH]c1)S(=O)(=O)c1ccc(N)cc1` [Example 15, N-{2[(3S)-3-{[(4-aminophenyl)sulfonyl](1H-pyrazol-4-ylmethyl)amino}-4-hydroxybutyl]phenyl}-2-chloro-Nα-(methoxycarbonyl)-L-phenylalaninamide], the IC50 in experiment [1] (setting [4]) amounted to 1.8 nM. For the same compound, the IC95 in experiment [2] (setting [3]) is 2.44 µM.
With `COC(=O)N[C@H](C(=O)Nc1cccnc1CC[C@@H](CO)N(Cc1cnoc1)S(=O)(=O)c1ccc2ncsc2c1)C(c1ccccc1)c1ccccc1` [Example 18, N-(2-{(3S)-3-[(1,3-benzothiazol-6-ylsulfonyl)(isoxazol-4-ylmethyl)amino]-4-hydroxybutyl}pyridin-3-yl)-Nα-(methoxycarbonyl)-β-phenyl-L-phenylalaninamide], the IC50 in experiment [1] (setting [4]) came to 2.3 nM. Besides, the concentration for an effect of 95% (IC95) in experiment [2] (setting [3]) is 0.755 µM.
Regarding `COC(=O)N[C@H](C(=O)Nc1ccccc1CC[C@@H](CO)N(CCC(C)C)S(=O)(=O)c1ccc2ncsc2c1)C(c1ccccc1)c1ccccc1` [Example 9, N-(2-{(3S)-3-[(1,3-benzothiazol-6-ylsulfonyl)(3-methylbutyl)amino]-4-hydroxybutyl}phenyl)-Nα-(methoxycarbonyl)-β-phenyl-L-phenylalaninamide], in experiment [1], the IC50 was 0.3 nM. Moreover, the IC95 in experiment [2] (setting [3]) was determined as 0.957 µM.
For `COC(=O)N[C@H](C(=O)Nc1cnccc1SC[C@@H](CO)N(CC(C)C)S(=O)(=O)c1ccc2ncsc2c1)C(c1ccccc1)c1ccccc1` [Example 24, N-[4-({(2R)-2-[(1,3-benzothiazol-6-ylsulfonyl)(2-methylpropyl)amino]-3-hydroxypropyl}sulfanyl)pyridin-3-yl]-Nα-(methoxycarbonyl)-β-phenyl-L-phenylalaninamide], in experiment [1] (setting [4]), the IC50 is 4.2 nM. In addition, the IC95 in experiment [2] (setting [3]) is 1.12 µM.
For `COC(=O)N[C@H](C(=O)Nc1cccc(C[C@@H](CO)N(CCC(C)C)S(=O)(=O)c2ccc(N)cc2)c1)C(c1ccccc1)c1ccccc1` [Example 31, N-{3-[(2S)-2-{[(4-aminophenyl)sulfonyl](3-methylbutyl)amino}-3-hydroxypropyl]phenyl}-Nα-(methoxycarbonyl)-β-phenyl-L-phenylalaninamide], the IC50 in experiment [1] (setting [4]) was found to be 3.7 nM. For the same compound, the IC95 in experiment [2] (setting [3]) stood at 1.26 µM.
In turn, `COC(=O)N[C@H](C(=O)Nc1ccccc1CC[C@@H](CO)N(Cc1cn(C)nc1C)S(=O)(=O)c1ccc2ncsc2c1)C(c1ccccc1)c1ccccc1` [Example 11, N-{2-[(3S)-3-{(1,3-benzothiazol-6-ylsulfonyl)[(1,3-dimethyl-1H-pyrazol-4-yl)methyl]amino}-4-hydroxybutyl]phenyl}-Nα-(methoxycarbonyl)-β-phenyl-L-phenylalaninamide] showed an IC50 in experiment [1] of 0.05 nM. Also, the IC95 in experiment [2] (setting [3]) worked out at 0.683 µM.
In the case of `COC(=O)N[C@H](C(=O)Nc1ccccc1CC[C@@H](CO)N(Cc1cnoc1)S(=O)(=O)c1ccc(N)cc1)C(c1ccccc1)c1ccccc1` [Example 4], the IC50 in experiment [1] is 0.2 nM. In experiment [2] (setting [3]), the 95% effect concentration (IC95) is 0.838 µM.
As for `[2H]C([2H])([2H])C([2H])([2H])C([2H])([2H])N([C@H](CO)CCc1ccccc1NC(=O)[C@@H](NC(=O)OC)C(c1ccccc1)c1ccccc1)S(=O)(=O)c1ccc2ncsc2c1` [Example 10, N-(2-{(3S)-3-[(1,3-benzothiazol-6-ylsulfonyl)(propyl-d7)amino]-4-hydroxybutyl}phenyl)-Nα-(methoxycarbonyl)-β-phenyl-L-phenylalaninamide], in experiment [1], half-maximal inhibition (IC50) required 0.7 nM. In addition, the IC95 in experiment [2] (setting [3]) came to 1.19 µM.
For `COC(=O)N[C@H](C(=O)Nc1cnccc1SC[C@@H](CO)N(Cc1cnoc1)S(=O)(=O)c1ccc2ncsc2c1)C(c1ccccc1)c1ccccc1` [Example 27, N-[4-({(2R)-2-[(1,3-benzothiazol-6-ylsulfonyl)(isoxazol-4-ylmethyl)amino]-3-hydroxypropyl}sulfanyl)pyridin-3-yl]-Nα-(methoxycarbonyl)-β-phenyl-L-phenylalaninamide], in experiment [1] (setting [4]), the IC50 was 6.9 nM. For the same compound, the IC95 in experiment [2] (setting [3]) is 1.5 µM.
`COC(=O)N[C@H](C(=O)Nc1cccc(C[C@@H](CO)N(CCC(C)C)S(=O)(=O)c2ccc(CO)cc2)c1)C(c1ccccc1)c1ccccc1` [Example 32, N-(3-{(2S)-3-hydroxy-2-[{[4-(hydroxymethyl)phenyl]sulfonyl}(3-methylbutyl)amino]propyl}phenyl)-Nα-(methoxycarbonyl)-β-phenyl-L-phenylalaninamide] had an IC50 in experiment [1] of 2.4 nM. The IC95 in experiment [2] (setting [3]) turned out to be 1.74 µM.
For `COC(=O)N[C@H](C(=O)Nc1ccccc1CC[C@@H](CO)N(CC1CC(F)(F)C1)S(=O)(=O)c1ccc2ncsc2c1)C(c1ccccc1)c1ccccc1` [Example 12, N-{2-[(3S)-3-{(1,3-benzothiazol-6-ylsulfonyl)[(3,3-difluorocyclobutyl)methyl]amino}-4-hydroxybutyl]phenyl}-Nα-(methoxycarbonyl)-β-phenyl-L-phenylalaninamide], the IC50 in experiment [1] (setting [4]) is 0.9 nM. Also, the IC95 in experiment [2] (setting [3]) was found to be 1.53 µM.
For `COC(=O)N[C@H](C(=O)Nc1cnccc1CC[C@@H](CO)N(Cc1cncnc1C)S(=O)(=O)c1ccc2ncsc2c1)C(c1ccccc1)c1ccccc1` [Example 20, N-{4-[(3S)-3-{(1,3-benzothiazol-6-ylsulfonyl)[(4-methylpyrimidin-5-yl)methyl]amino}-4-hydroxybutyl]pyridin-3-yl}-Nα-(methoxycarbonyl)-β-phenyl-L-phenylalaninamide], in that order: 3.5 nM and 2.2 µM.
The compound `COC(=O)N[C@H](C(=O)Nc1ccccc1CC[C@@H](CO)N(C(C)C)S(=O)(=O)c1ccc(N)cc1)C(c1ccccc1)c1ccccc1` [Example 2, N-{2-[(3S)-3-{[(4-aminophenyl)sulfonyl](propan-2-yl)amino}-4-hydroxybutyl]phenyl}-Nα-(methoxycarbonyl)-β-phenyl-L-phenylalaninamide] showed an IC50 in experiment [1] of 1.2 nM. Besides, the IC95 in experiment [2] (setting [3]) turned out to be 0.919 µM.
`COC(=O)N[C@H](C(=O)Nc1c(SC[C@@H](CO)N(CCC(C)C)S(=O)(=O)c2ccc(N)cc2)cc[nH]c1=O)C(c1ccccc1)c1ccccc1` [Example 23, N-(4-{[(2R)-2-{[(4-aminophenyl)sulfonyl](3-methylbutyl)amino}-3-hydroxypropyl]sulfanyl}-2-oxo-1,2-dihydropyridin-3-yl)-Nα-(methoxycarbonyl)-β-phenyl-L-phenyl alaninamide]: in experiment [1] (setting [4]), the IC50 is 0.06 nM. Also, the IC95 in experiment [2] (setting [3]) was determined as 2.5 µM.
As for `[2H]C([2H])([2H])C([2H])(C([2H])([2H])[2H])C([2H])([2H])N([C@H](CO)CCc1ccccc1NC(=O)[C@@H](NC(=O)OC)C(c1ccccc1)c1ccccc1)S(=O)(=O)c1ccc2ncsc2c1` [Example 8, N-(2-{(3S)-3-[(1,3-benzothiazol-6-ylsulfonyl)(2-methylpropyl-d9)amino]-4-hydroxybutyl}phenyl)-Nα-(methoxycarbonyl)-β-phenyl-L-phenylalaninamide], the midpoint of inhibition in experiment [1], the IC50, lay at 1.7 nM. The IC95 in experiment [2] (setting [3]) came to 1.55 µM.
`[2H]C([2H])([2H])C([2H])(C([2H])([2H])[2H])C([2H])([2H])N([C@H](CO)CSc1ccncc1NC(=O)[C@@H](NC(=O)OC)C(c1ccccc1)c1ccccc1)S(=O)(=O)c1ccc2ncsc2c1` [Example 25, N-[4-({(2R)-2-[(1,3-benzothiazol-6-ylsulfonyl)(2-methylpropyld7)amino)-3-hydroxypropyl}sulfanyl)pyridin-3-yl]-Nα-(methoxycarbonyl)-β-phenyl-L-phenylalaninamide]: the IC50 in experiment [1] (setting [4]) was found to be 4.8 nM. Besides, the IC95 in experiment [2] (setting [3]) turned out to be 1.15 µM.
On to `COC(=O)N[C@H](C(=O)Nc1ccccc1CC[C@@H](CO)N(CC1CC1)S(=O)(=O)c1ccc(N)cc1)C(c1ccccc1)c1ccccc1` [Example 3, N-{2-[(3S)-3-{[(4-aminophenyl)sulfonyl](cyclopropylmethyl)amino}-4-hydroxybutyl]phenyl}-Nα-(methoxycarbonyl)-β-phenyl-L-phenylalaninamide], for which the IC50 in experiment [1] (setting [4]) was found to be 0.2 nM. Also, the IC95 in experiment [2] (Human immunodeficiency virus 1, read-out: Spread IC95) is 0.307 µM.
